In patent US20100203587A1, “USE OF DNA GYRASE INHIBITORS FOR IN VITRO POLYPEPTIDE SYNTHESIS REACTIONS” (priority 2009, published 2010):
Read-outs that look alike come from different tables or passages of the source.

Experiments:
bacterial strains = details: cited from earlier work; for minimum inhibitory concentration (According to literature): Klein et al.
[1] = test system: bacterial growth from lysate; test: Inhibition of bacterial growth from lysate in LB medium (Example 6); assay type: cell-based; details: 16 hours; for OD595 (cell density): 37° C.
[2] = test system: GM-CSF yields in cell-free reactions; test: Cell-free protein synthesis reaction, GM-CSF yields; assay type: biochemical, E. coli; details: for Concentration with very mild impact on GM-CSF yields in cell-free reactions: FIG. 3, 60 μL scale; for Concentration without impact in cell-free reactions: GM-CSF yields
Procedure: In vitro protein synthesis reactions occurred in lysates generated from a population of cells. The lysate must be generated such that it would be useful for expressing proteins. E. coli A19ΔendAΔtonAΔspeAΔtnaAΔsdaAΔsdaBΔgshAΔgorTrxBHAmet^+ was used for as the extract source cell strain.
E. coli cells were grown in a 10 L Braun Biostat C fermentor. The cells were grown on 2YPTG media in batch mode with pH control at pH 7.0. The cells were harvested at 3.2 OD (595) at growth rate of >0.7 per hour. Cells were separated from the media by centrifugation at 6000 g, 4° C. for 25 min and the resulting cell paste was stored at −80° C. The cell paste was thawed at 4° C. in S30 buffer (10 mM TRIS-acetate pH 8.2 (Sigma-Aldrich Corp. St. Louis, Mo.), 14 mM magnesium acetate (Sigma-Aldrich), and 60 mM potassium acetate (Sigma-Aldrich)) at a ratio of 1 mL of buffer per 1 g of wet cell paste. Resuspended cells were passed through a high pressure homogenizer (Emulsiflex C-50, Avestin Inc., Ottawa, Ontario, Canada). The pressure drop was set at 20000 psi. The homogenized mixture was then centrifuged at 30000 g, 4° C. for 30 minutes. The procedure was repeated twice and the supernatant was retained both times. The mixture was incubated at 37° C. for 80 min in a rotary shaker. The lysate was then centrifuged at 20000 g, 4° C. for 30 minutes and supernatant was retained.
The extract was pretreated with 50 μM iodoacetamide at 21° C. for 30 min. The plasmid contained the structural gene encoding the target protein and was constructed as explained above. Amino Acids were in an equimolar mixture of all 20 native amino acids.
The 250 μL of reaction mixture is spread on the bottom of a petri dish (BD Falcon) and incubated at 30° C. in a sealed humidified incubator for 5 hours. 300 mL reaction is performed in QPlus bioreactor, 4 L in 10 L Braun Biostat C fermentor and 100 L in 200 L fermentor (Sartorius).

[3] = test system: bacterial growth in lysates used for cell-free reactions; test: Inhibition of bacterial growth from lysate in LB medium (Example 5); assay type: cell-based; details: 20 hours; for OD595: 30° C.; for Concentration that inhibits growth: Example 5, 30° C.
Procedure: 20 μl of lysate was inoculated into 2 ml LB medium, which contained 0, 0.1, 0.25, 0.5, and 1 μg/mL of Norfloxacin or 0, 1, 2.5, 5, and 10 μg/ml Coumermycin A1 and was incubated at 30° C. by shaking at 300 rpm. OD595 was assayed after incubation for 20 hours.

Clostridium difficile = Clostridium difficile (Shungu et al.); cited from earlier work
[4] = test system: hepatic nonprotein sulfhydryl groups (mainly reduced glutathione); details: in vivo and in vitro studies using rats (Lake et al.; Fernyhough et al.); cited from earlier work

Molecule: O=C(O)c1cn(C2CC2)c2cc(N3CCNCC3)c(F)cc2c1=O [Ciprofloxacin]
- minimum inhibitory concentration (According to literature) (bacterial strains): 1 (1) μg/ml
- minimum inhibitory concentration (According to literature) (bacterial strains; listed as ciprofloxacin): about 1 μg/ml
- Concentration that inhibits growth ([1]; Example 6, 37° C.): 1 µg/mL

Molecule: CCn1cc(C(=O)O)c(=O)c2cc(F)c(N3CCNCC3)cc21 [Norfloxacin]
- Concentration that inhibits growth (According to literature) (bacterial strains; most gastrointestinal strains tested (Shungu et al.)): 0.008 to 1 µg/mL
- Concentration with very mild impact on GM-CSF yields in cell-free reactions [2]: up to 2.5 μg/ml
- Concentration without impact in cell-free reactions [2]: 2.5 µg/mL
- OD595 ([3]; 0.1 μg/ml): 1.8
- OD595 ([3]; 0.25 μg/ml): 1.3
- OD595 ([3]; 0.5 μg/ml): 1.2
- OD595 ([3]; 1 μg/ml): 0.06
- Concentration that inhibits growth [3]: 1 µg/mL
- inhibitory concentration (literature) (Clostridium difficile): 1 to 128 µg/mL

Molecule: CO[C@@H]1[C@@H](OC(N)=O)[C@@H](O)[C@H](Oc2ccc3c(O)c(NC(=O)c4ccc(O)c(CC=C(C)C)c4)c(=O)oc3c2C)OC1(C)C [Novobiocin]
- Concentration that inhibits growth (According to literature) (bacterial strains; different bacterial strains (Smith and Davis)): 100 to 300 µg/mL
- Concentration that negatively impacts GM-CSF yields in cell-free reactions ([2]; FIG. 5): ≥ 10 µg/mL
- Effect on hepatic nonprotein sulfhydryl groups (mainly reduced glutathione) [4]: depletion of hepatic nonprotein sulfhydryl groups
- OD595 (cell density) ([1]; 10 μg/ml): 0.003
- OD595 (cell density) ([1]; 25 μg/ml): 0.17
- OD595 (cell density) ([1]; 50 μg/ml): 0.08
- OD595 (cell density) ([1]; 100 μg/ml): 0.1
- OD595 (cell density) ([1]; 200 μg/ml): 0.13

Molecule: Coumermycin A1
- Concentration that inhibits growth (According to literature) (bacterial strains; some strains tested (Hooper et al.)): 2 to 8 µg/mL
- Concentration with very mild impact on GM-CSF yields in cell-free reactions [2]: 10 µg/mL
- Concentration without impact in cell-free reactions [2]: 10 µg/mL
- OD595 ([3]; 1 μg/ml): 1.7
- OD595 ([3]; 2.5 μg/ml): 1.2
- OD595 ([3]; 5 μg/ml): 1.1
- OD595 ([3]; 10 μg/ml): 0.2
- Concentration that inhibits growth [3]: 10 µg/mL
